For assay [1], the system named is H9P49 embryonic stem cells. Kind of assay: Real-time PCR of pancreatic endoderm markers, evaluation of retinoic acid analogues. Format: cell-based, human. The method, then: At day 5, cells were collected for evaluation by FACS and real-time PCR. […] The resulting definitive endoderm cells at day 5 were exposed to the following media conditions to induce pancreatic endoderm formation: culturing in DMEM/F 12 media supplemented with 2% FBS and 1 μM all-trans retinoic acid (RA) (Catalog#R2625, Sigma, MO), or 0.1-10 μM AM-580 (4-[(5,6,7,8-Tetrahydro-5,5,8,8-tetramethyl-2-naphthalenyl)carboxamido]benzoic acid, Catalog #A8843, Sigma, MO), or 0.1-1 μM TTNPB (4-[(E)-2-(5,6,7,8-Tetrahydro-5,5,8,8-tetramethyl-2-naphthalenyl)-1-propenyl]benzoic acid Arotinoid acid, Catalog #T3757, Sigma, MO) for 3 days. AM-580 and TTNPB are retinoic acid analogs with affinity for retinoic acid receptors. RA treatment was followed by additional three day treatment in DMEM/F12 media supplemented with 2% FBS and 20-50 ng/ml bFGF (Catalog #F0291, Sigma, MO).

Assay [2] relates to human embryonic stem cell line H1. Kind of assay: Real-time PCR of definitive endoderm markers, H1 on human serum or […] (Examples 30, 31, 35). Format: cell-based. The method, then: Cultures of the human embryonic stem cell line H1 at passage 55 were grown and differentiated on human serum (Sigma, #H1388, MO) coated plates. 0.5 ml of human serum was added to each well of 6 well tissue culture treated dish, incubated for 1 hr at room temperature, and aspirated before adding human embryonic stem cells. After cells reached 80% confluency, they were treated as follows: 2 days 0.5% FBS containing 10 ng/ml mouse recombinant Wnt3a (R&D) or 100 nM GSK-3B inhibitor IX (Catalog #361550, Calbiochem, CA) and 100 ng/mlActivin A (R&D). This was followed by 3 days 2% FBS plus 100 ng/mlActivin A. Cultures were then analyzed by real-time PCR (FIG. 46, panels a & b). […] These findings parallel our findings for human embryonic stem cells cultured on […]™ or human fibronectin coated plates.
The effectiveness of a number of commercially available GSK-3B inhibitors was evaluated in formation of DE from human embryonic stem cells. The following GSK-3B inhibitors were evaluated at 100 nM: GSK-3B inhibitor VIII (Catalog #361549, Calbiochem, CA), GSK-3B inhibitor IX (Catalog #361550, Calbiochem, CA), GSK-3B inhibitor XI (Catalog #361553, Calbiochem, CA), GSK-3B inhibitor XII (Catalog #361554, Calbiochem, CA). […] Control cultures were treated with low serum plus high dose of AA. FIG. 47, panels a and b depicts the gene expression of definitive endoderm markers at day 5. GSK-3B inhibitor IX and XI were both effective in inducing DE formation as compared to GSK-3B inhibitor VIII and XII.
The following combinations of WNT1+AA were tested:
a) 20 ng/ml of WNT1+100 ng/ml AA in 0.5% FBS+DM-F12 for days 1-2 followed by 2% FBS+DM-F12+100 ng/ml AA for day three, b) 20 ng/ml of WNT1+100 ng/ml AA in 0.5% FBS+DM-F12 for days 1-2 followed by 2% FBS+DM-F12+100 ng/ml AA for days 3-5, c) 10 ng/ml of WNT1+100 ng/ml AA in 0.5% FBS+DM-F12 for days 1-2 followed by 2% FBS+DM-F12+100 ng/ml AA for day three, d) 10 ng/ml of WNT1+100 ng/ml AA in 0.5% FBS+DM-F12 for days 1-2 followed by 2% FBS+DM-F12+100 ng/ml AA for days 3-5, e) 20 ng/ml of WNT1+100 ng/ml AA in 0.5% FBS+DM-F12 for days 1-2 followed by 2% FBS+DM-F12+100 ng/ml AA+20 ng/ml of WNT1 for day three, f) 20 ng/ml of WNT1+100 ng/ml AA in 0.5% FBS+DM-F12 for days 1-2 followed by 2% FBS+DM-F12+100 ng/ml AA+20 ng/ml of WNT1 for days 3-5.

The subject of assay [3] is human embryonic stem cell line H9. Kind of assay: Real-time PCR of marker gene expression, H9 on MEF (Examples 2-7). Format: cell-based. As for the experimental part: Cells were harvested at the time points indicated in FIG. 3 and assayed by PCR for the expression of genes shown (FIGS. 3, 4 and 5).
After this time interval, the cells were then treated for six days with combinations of retinoic acid and FGF as outlined in Example 2, then the culture medium was removed and replaced with medium comprising DMEM/F12 with 2% FBS, containing the γ-secretase inhibitors L-685,458 at 10 μM for three days.
Cells were continuously cultured for another 3 to 5 days in basal medium with retinoic acid at 1 μM, alone or with bFGF. RNA samples were harvested from cells at various time points along this process to help evaluate the directed differentiation of the cells. Furthermore, culture medium and factors were regularly removed and replenished throughout the differentiation protocol.
RNA extraction, purification, and cDNA synthesis. RNA samples were purified by binding to a silica-gel membrane (Rneasy Mini Kit, Qiagen, CA) in the presence of an ethanol-containing, high-salt buffer followed by washing to remove contaminants. The RNA was further purified using a TURBO DNA-free kit (Ambion, INC), and high-quality RNA was then eluted in water. Yield and purity were assessed by A260 and A280 readings on a spectrophotometer. cDNA copies were made from purified RNA using an ABI (ABI, CA) high capacity cDNA archive kit.
Real-time PCR amplification and quantitative analysis.
Final data were expressed relative to a calibrator sample.

Assay [4] concerns pancreatic endoderm cells derived from human embryonic stem cells. Put plainly: Passage and expansion of pancreatic endoderm cells in culture. Format: cell-based. Conditions: 50 ng/ml FGF10; 6 day culture period. As for the experimental part: The low serum DMEM/F12 contained 0% (v/v) fetal bovine serum (FBS) on day 1, 0.5% (v/v) FBS on day two and 2% (v/v) FBS on each day thereafter. After four days of differentiation, the cells were cultured in low serum DMEM/F12 contained 2% (v/v) FBS, 1 μM retinoic acid and 50 ng/ml bFGF for a total of six more days. After the six days of differentiation, the cells were maintained in culture in low serum DMEM/F12 contained 2% (v/v) FBS in the presence of 50 ng/ml FGF10 for a total of 6 days. During the six-day culture period, the pancreatic endoderm cells were passaged twice and cell population-doubling time is about 36 to 48 hours during this 6-day culture. On days 0, 3, and 6 of culture, Q-PCR was used to measure the expression of marker genes indicative of pancreatic endoderm.

[5] abbreviates: 1 μM RA followed by exposure to bFGF.

Turning to `CC1(C)CCC(C)(C)c2cc(C(=O)Nc3ccc(C(=O)O)cc3)ccc21` [AM-580, 4-[(5,6,7,8-Tetrahydro-5,5,8,8-tetramethyl-2-naphthalenyl)carboxamido]benzoic acid], in assay [1] (10 μM AM-580), the “AFP and CDX-2 expression” value is listed as “suppressed”; the “expression of PDX-1” value is given as “high expression”.

For the molecule `O=C1NC(=O)C(c2cn(CCCO)c3ncccc23)=C1c1cnccn1` [GSK-3B inhibitor XI], in assay [2] (H1P54 on MATRIGEL, 100 nM for first two days, compared to GSK-3B inhibitor VIII and XII), the “inducing DE formation” value is reported as “effective”.

With `CC1=C(/C=C/C(C)=C/C=C/C(C)=C/C(=O)O)C(C)(C)CCC1` [retinoic acid, all-trans retinoic acid, reference compound], in assay [3] (1 μM retinoic acid and bFGF in the absence of activin A), the “expression of GLUT-2 and PTF1a” value is “increase”. In assay [3] (activin A or retinoic acid alone), the “expression of Pdx1” value was “did not induce”. The “expression of α-fetoprotein (AFP) and albumin” value in assay [3] (retinoic acid and FGF-4 for five days after 7 days activin A) is recorded as “further increased”. Further, the “level of Pdx1 expression versus activin A treatment alone for 5 days” value in assay [3] (three days activin A, then 5 days 1 μM retinoic acid and 50 ng/ml bFGF in the absence of activin A) was “approximately 3500 fold”. Moreover, in assay [1] (setting [5]), the “foregut endoderm markers, such as CDX-2 and AFP” value is on record as “robust expression”; the “pancreatic endoderm markers, such as PDX-1” value is given as “significantly upregulates”.

B1: FGF10: member of the fibroblast growth factor family (protein, UniProt O15520 38-208, looked up)
Fibroblast growth factor 10: QALGQDMVSPEATNSSSSSFSSPSSAGRHVRSYNHLQGDVRWRKLFSFTKYFLKIEKNGKVSGTKKENCPYSILEITSVEIGVVAVKAINSNYYLAMNKKGKLYGSKEFNNDCKLKERIEENGYNTYASFNWQHNGRQMYVALNGKGAPRRGQKTRRKNTSAHFLPMVVHS
On to B1, for which the “expression of the pancreatic endoderm marker Pdx1” value in assay [4] is “maintained expression”.

B2: Wnt-1: Wnt ligand (PeproTech, NJ, Catalogue #120-17) (protein, UniProt P04628 28-370, looked up)
Proto-oncogene Wnt-1: ANSSGRWWGIVNVASSTNLLTDSKSLQLVLEPSLQLLSRKQRRLIRQNPGILHSVSGGLQSAVRECKWQFRNRRWNCPTAPGPHLFGKIVNRGCRETAFIFAITSAGVTHSVARSCSEGSIESCTCDYRRRGPGGPDWHWGGCSDNIDFGRLFGREFVDSGEKGRDLRFLMNLHNNEAGRTTVFSEMRQECKCHGMSGSCTVRTCWMRLPTLRAVGDVLRDRFDGASRVLYGNRGSNRASRAELLRLEPEDPAHKPPSPHDLVYFEKSPNFCTYSGRLGTAGTAGRACNSSSPALDGCELLCCGRGHRTRTQRVTERCNCTFHWCCHVSCRNCTHTRVLHECL
Take B2: in assay [2] (H1P55 on MATRIGEL, 20 ng/ml Wnt1 with 100 ng/ml of AA), the “definitive endoderm markers (Bry, CXCR4, GSC, SOX17, HNF-3B, and GATA-4)” value is recorded as “significant upregulation”.

Source of the values: US20100255580A1, “Differentiation of Human Embryonic Stem Cells” (LIFESCCAN, INC., priority 2007, published 2010).
